Reference: patent publication US20250034089A1, “TETRAHYDROCARBAZOLE COMPOUND, AND PHARMACEUTICAL COMPOSITION AND USE THEREOF” (NAIN BIOTECH (HANGZHOU) CO., LTD., priority 2021, published 2025)

Legend:
[1] = system: HepG2 (human liver cancer cells); test: In vitro proliferation inhibition (CCK-8), HepG2; format: cell-based; details: for IC50: Homo sapiens
Description: (§1) • 1) Cell sources: HeLa (human cervical cancer cells), CaSki (human cervical cancer intestinal metastasis cells), Huh7 (human liver cancer cells), HepG2 (human liver cancer cells), Hep3B (human liver cancer cells) were purchased from the Chinese Academy of Sciences cell bank (Shanghai); LO2 (human normal liver cells) and HcerEpic (human normal uterine epithelial cells) were from ATCC. • 2) Cell culture and passage: The cell culture and passage method is the same as that described in “The inhibitory effect of compounds on the OCT4 protein in tumor stem cells (CSC)”. • 3) Cell dosing treatment: The each type of cells mentioned above was digested, counted, and inoculated in each well of the 96 well cell culture plate (#3988, Corning) at a density of 5000 cells/200 μl culture medium. They were cultured in a cell culture incubator at 37° C. and 5% CO2 for 24 hours to allow the cells to fully adherent to the wall. Then, the original culture medium was replaced with complete culture medium containing gradient diluted KZT-A5 (each concentration with 3 repeated wells) as well as DMSO (#D5879, Sigma Aldrich) solvent control, and they are cultured for additional 72 hours. • 4) Pharmacodynamic test and statistics: First, the morphology of cells treated with the above compounds was observed, photographed and recorded using an inverted phase contrast microscope (X71, Olympus). Then the original culture medium was replaced with phenol red free culture medium containing CCK-8 detection reagent (#E606335, Shanghai Shenggong) respectively, and they are cultured in the incubator for additional 2 hours. Then the OD450 nm absorbance value (OD value) was measured on a multifunctional enzyme-linked immunosorbent assay (168-1130, Bio Rad). After the cells were treated with the test compound, the equations for calculating the cell survival rate or cell growth rate is: survival rate=GD value of the treated group/OD value of the control group×100%; the equations for calculating the growth inhibition rate of compounds on cell proliferation is: inhibition rate=(OD value of control group−OD value of the treated group)/OD value of control group×100%. Further, the IC50 of each compound was calculated in SPSS based on the inhibition rate. […]

[2] = system: Hep3B (human liver cancer cells); test: In vitro proliferation inhibition (CCK-8), Hep3B; format: cell-based; details: for IC50: Homo sapiens
Description: as §1

IC50 ([1]; HepG2, 72 hours, CCK-8, average of three wells in one test): 3.13 µM
IC50 ([1]; HepG2, test (2), average±standard deviation of three wells): 3.16 ± 0.08 µM
IC50 ([2]; 72 hours, CCK-8, average of three wells in one test): 36.6 µM
IC50 ([2]; test (2), average±standard deviation of three wells): 23.5 ± 1.51 µM
SMILES: COc1cc(/C=C2\CCc3c([nH]c4ccc(C)cc34)C2=O)ccc1O [KZT-A5]
inhibitory effect on viability compared with AH057 ([1]; HepG2, FIG. 6): more significant inhibitory effect
inhibitory effect compared with AH057 ([2]; Table 3): comparable to AH057
